The values below come from ChEMBL document CHEMBL4219050, “Inhibit or Evade Multidrug Resistance P-Glycoprotein in Cancer Treatment” (J Med Chem, 2018).

Molecules are shown by their SMILES. pEC50, pIC50: −log10 of the molar value.

Assay [1] concerns HCT-116. As to the kind of experiment: Cytotoxicity against human HCT116 cells. It is filed as functional, cell-based.
For assay [2], the species on record is Homo sapiens. Description: (§1) Binding affinity to P-gp (unknown origin).
The test system of assay [3] is MES-SA/Dx5. As to the kind of experiment: Growth inhibition of human MES-SA/Dx5 cells after 72 hrs by SRB assay. It is filed as functional, cell-based. The note with it: MES-SA/Dx5, 72 h. On the technique in general: Sulforhodamine B stains cellular protein and so reports cell mass.
Assay [4] is described as follows: Growth inhibition of human MDA435/LCC6 cells after 72 hrs by SRB assay. It is filed as functional. The settings on record: MDA-435/LCC6, 72 h.
Assay [5] is described as follows: as §1. Also on record: species or system Homo sapiens.

For the compound `C/C(=C\c1csc(C)n1)[C@@H]1C/C=C\C/C=C\[C@H](C)[C@H](O)[C@@H](C)C(=O)C(C)(C)[C@@H](O)CC(=O)O1`, the negative-log IC50 (pIC50) (in general, the IC50 on a negative log10 scale, so that one unit is a factor of ten) in assay [1] is 9.39.

In the case of `COc1ccc(CCN(C)CCCC(C#N)(c2ccc(OC)c(OC)c2)C(C)C)cc1OC` (stereo not drawn), in assay [2], the Activity stood at 10 µM.

On to `CO[C@H]1C(=O)[C@]2(C)[C@@H](OC)C[C@H]3OC[C@@]3(OC(C)=O)[C@H]2[C@H](OC(=O)c2ccccc2)[C@]2(O)C[C@H](OC(=O)[C@H](O)[C@@H](NC(=O)OC(C)(C)C)c3ccccc3)C(C)=C1C2(C)C` [CABAZITAXEL], for which the pIC50 in assay [3] was 7.82.

In assay [1], `C/C(=C\c1csc(C)n1)[C@@H]1C[C@@H]2O[C@]2(C)CCC[C@H](C)[C@H](O)[C@@H](C)C(=O)C(C)(C)[C@@H](O)CC(=O)N1` [IXABEPILONE] had a pIC50 of 8.59.

For `CC(=O)O[C@H]1C(=O)[C@@]2(C)[C@H]([C@H](OC(=O)c3ccccc3)[C@]3(O)C[C@H](OC(=O)[C@H](O)[C@@H](NC(=O)c4ccccc4)c4ccccc4)C(C)=C1C3(C)C)[C@]1(OC(C)=O)CO[C@@H]1C[C@@H]2O` [PACLITAXEL], the pIC50 in assay [4] was 6.46; in assay [3], 6.68.

With `COc1cc2c(cc1OC)CN(CCc1ccc(NC(=O)c3cc(OC)c(OC)cc3NC(=O)c3cnc4ccccc4c3)cc1)CC2` [TARIQUIDAR], the pEC50 (as a rule, the negative decadic logarithm of the EC50, by convention in mol/L) in assay [5] was over 7.00.

In turn, `O[C@@H](COc1cccc2ncccc12)CN1CCN([C@@H]2c3ccccc3[C@@H]3[C@H](c4ccccc42)C3(F)F)CC1` [ZOSUQUIDAR] showed a pEC50 in assay [5] of over 7.00.
